Laboratory results from US9951065B2 (Gilead Sciences, Inc., priority 2015, dated 2018).

Molecular target: T1, IDO1 (Homo sapiens, UniProt P14902)
T1 construct: HeLa cells were treated with a test compound in the presence of IFNγ, which induces IDO1 expression; host or cells: H1-HeLa cells, IDO1 induced with IFNγ
Test: Cell-based (HeLa) assay for measurement of IDO1 inhibition (kynurenine levels in supernatant after IFNγ induction)
Conditions: HeLa cells, IFNγ-induced IDO1, kynurenine in supernatant after 48 hour incubation; geometric mean of a minimum of four determinations
In short: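 HeLa cells, 1,250 per well, treated with compound (0.5% DMSO final) plus IFNγ to induce IDO1, for 48 h. Supernatant kynurenine measured by TCA hydrolysis at 60 °C, then p-dimethylaminobenzaldehyde, absorbance 480 nm. EC50 from a four-parameter fit normalized to −/+IFNγ controls; geometric mean of at least four runs.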

T1 sequence (P14902 whole entry): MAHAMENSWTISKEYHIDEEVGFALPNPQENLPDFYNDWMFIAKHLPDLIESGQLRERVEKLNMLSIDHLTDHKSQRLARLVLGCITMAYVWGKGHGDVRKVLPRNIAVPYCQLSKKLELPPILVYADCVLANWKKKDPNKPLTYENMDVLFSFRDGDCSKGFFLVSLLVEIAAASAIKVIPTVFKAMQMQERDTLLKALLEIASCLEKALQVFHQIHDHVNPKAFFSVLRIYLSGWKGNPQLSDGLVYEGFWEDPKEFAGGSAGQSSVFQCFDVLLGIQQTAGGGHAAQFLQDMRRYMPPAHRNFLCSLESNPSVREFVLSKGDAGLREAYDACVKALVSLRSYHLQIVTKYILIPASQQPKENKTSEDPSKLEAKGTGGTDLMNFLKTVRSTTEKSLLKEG

| Compound | EC50 |
| --- | --- |
| O/N=C(\Nc1ccc(F)c(Cl)c1)c1ccnc2nc(CNCc3ccccc3)[nH]c12 [Example 115, 2-((Benzylamino)methyl)-N-(3-chloro-4-fluorophenyl)-N′-hydroxy-1H-imidazo[4,5-b]pyridine-7-carboximidamide] | 1.76 µM |
| O/N=C(\Nc1ccc(F)c(Cl)c1)c1ccnc2nc(Nc3ccccc3)[nH]c12 [Example 155, N-(3-Chloro-4-fluorophenyl)-N′-hydroxy-2-(phenylamino)-1H-imidazo[4,5-b]pyridine-7-carboximidamide] | 2.15 µM |
| COCCN(C)CCc1nc2nccc(/C(=N/O)Nc3ccc(F)c(Cl)c3)c2[nH]1 [Example 194, N-(3-Chloro-4-fluorophenyl)-N′-hydroxy-2-(2-((2-methoxyethyl)(methyl)amino)ethyl)-1H-imidazo[4,5-b]pyridine-7-carboximidamide] | 0.504 µM |
| O/N=C(\Nc1ccc(F)c(Cl)c1)c1ccnc2nc(NCCC3CCCCC3)[nH]c12 [Example 223, N-(3-chloro-4-fluorophenyl)-2-((2-cyclohexylethyl)amino)-N′-hydroxy-1H-imidazo[4,5-b]pyridine-7-carboximidamide] | 2.18 µM |
| COCCN(CCNc1nc2nccc(/C(=N/O)Nc3ccc(F)c(Cl)c3)c2[nH]1)C1CC1 [Example 232, N-(3-chloro-4-fluorophenyl)-2-((2-(cyclopropyl(2-methoxyethyl)amino)ethyl)amino)-N′-hydroxy-1H-imidazo[4,5-b]pyridine-7-carboximidamide] | 0.46 µM |
| O/N=C(\Nc1ccc(F)c(Cl)c1)c1ccnc2nc(NC3CC3)[nH]c12 [Example 154, N-(3-Chloro-4-fluorophenyl)-2-(cyclopropylamino)-N′-hydroxy-1H-imidazo[4,5-b]pyridine-7-carboximidamide] | 0.529 µM |
| CCN(CC)CCc1nc2nccc(/C(=N/O)Nc3ccc(F)c(Cl)c3)c2[nH]1 [Example 185, N-(3-Chloro-4-fluorophenyl)-2-(2-(diethylamino)ethyl)-N′-hydroxy-1H-imidazo[4,5-b]pyridine-7-carboximidamide] | 0.531 µM |
| CN(CCc1nc2nccc(/C(=N/O)Nc3ccc(F)c(Cl)c3)c2[nH]1)CC(F)F [Example 187, N-(3-Chloro-4-fluorophenyl)-2-(2-((2,2-difluoroethyl)(methyl)amino)ethyl)-N′-hydroxy-1H-imidazo[4,5-b]pyridine-7-carboximidamide] | 3.4 µM |
| CC(C)(C)OC(=O)NCCc1nc2c(F)c(F)cc(/C(=N/O)Nc3ccc(F)c(Cl)c3)c2[nH]1 [Example 213, tert-butyl (2-(7-(N-(3-chloro-4-fluorophenyl)-N′-hydroxycarbamimidoyl)-4,5-difluoro-1H-benzo[d]imidazol-2-yl)ethyl)carbamate] | 3.62 µM |

Other lines, results leading:

| EC50 | Compound |
| --- | --- |
| 3.21 µM | O/N=C(\Nc1ccc(F)c(Cl)c1)c1ccnc2nc(CCN3CC[C@@H](O)C3)[nH]c12 [Example 260, (R)—N-(3-chloro-4-fluorophenyl)-N′-hydroxy-2-(2-(3-hydroxypyrrolidin-1-yl)ethyl)-1H-imidazo[4,5-b]pyridine-7-carboximidamide] |
| 1.67 µM | CCNCc1nc2c(F)ccc(/C(=N/O)Nc3ccc(F)c(Cl)c3)c2[nH]1 [Example 287, N-(3-chloro-4-fluorophenyl)-2-((ethylamino)methyl)-4-fluoro-N′-hydroxy-1H-benzo[d]imidazole-7-carboximidamide] |

Same assay, conditions: HeLa cells, IFNγ-induced IDO1, kynurenine in supernatant, 48 hour incubation; geometric mean of a minimum of four determinations

| Compound | EC50 |
| --- | --- |
| O/N=C(\Nc1ccc(F)c(Cl)c1)c1cc(F)c(F)c2nc(NCCN3CC[C@H](O)C3)[nH]c12 [Example 452, (S)—N-(3-chloro-4-fluorophenyl)-4,5-difluoro-N′-hydroxy-2-((2-(3-hydroxypyrrolidin-1-yl)ethyl)amino)-1H-benzo[d]imidazole-7-carboximidamide] | 0.568 µM |
| CN1CCOC(CNc2nc3nccc(/C(=N/O)Nc4ccc(F)c(Cl)c4)c3[nH]2)C1 (stereo not shown) [Example 357, N-(3-chloro-4-fluorophenyl)-N′-hydroxy-2-(((4-methylmorpholin-2-yl)methyl)amino)-1H-imidazo[4,5-b]pyridine-7-carboximidamide] | 3.24 µM |
